Results reported in patent US9309187B2, “EP2 receptor agonists” (TAKEDA GMBH, priority 2012, dated 2016).

Legend:
[1] = target: T1, human prostanoid receptor EP2 (Homo sapiens, UniProt P43116); experiment: EP2 cAMP release assay in CHOp6CreLuc-huEP2 cells (CRE-luciferase readout); assay type: cell-based; details: CHOp6CreLuc-huEP2 cells, 4 hours at 37° C.; reported as range bins; read-out: EP2 cAMP release assay pEC50 (-log EC50) (converted)
T1 construct: expressed in transfected cells; host or cells: CHO-K1 (CHOp6CreLuc-huEP2)
T1 sequence (P43116 whole entry): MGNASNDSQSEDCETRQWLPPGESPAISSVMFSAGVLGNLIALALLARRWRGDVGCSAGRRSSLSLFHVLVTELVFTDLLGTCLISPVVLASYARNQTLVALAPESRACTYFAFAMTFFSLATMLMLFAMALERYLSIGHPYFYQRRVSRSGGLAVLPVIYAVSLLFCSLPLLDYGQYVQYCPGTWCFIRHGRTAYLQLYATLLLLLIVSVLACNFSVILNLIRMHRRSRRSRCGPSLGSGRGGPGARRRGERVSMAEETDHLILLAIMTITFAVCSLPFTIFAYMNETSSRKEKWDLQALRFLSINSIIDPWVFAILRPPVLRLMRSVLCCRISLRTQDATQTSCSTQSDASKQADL
Description: Method for Measuring cAMP Release in Human EP2 Stably Transfectant Cells:
The potency and efficacy of EP2 agonists have been determined via measuring cAMP release in stably transfectant CHO-K1 cell expressing the human prostanoid receptor EP2 and luciferase enzyme regulated via a 6 times CRE (cAMP response element) containing transcriptional promoter. CHOp6CreLuc-huEP2 cells were seeded into 384-well plate (1000 cells per well) in DMEM/F12 (Dulbecco's Modified Eagle Medium/Nutrient Mixture F12) cell culture medium containing 2% FCS (Fetal Calf Serum) and 500 μg/ml G418 24 hours prior to the experiment. Test compound was added as serial dilutions while keeping the final DMSO concentration constant in each well. […] Cells were incubated together with test compound or butaprost for 4 hours at 37° C. The cAMP release was determined indirectly via luciferase activity that directly correlated to the amount of luciferase enzyme expressed in response to cAMP regulated promoter activity. The luciferase activity was determined by addition of luciferin containing buffer and subsequent quantification of resulting luminescence. Each sample was measured in quadruplicates per experiment and half-maximal effective concentration (EC50) and relative maximal effect compared to butaprost was determined from 3 independent experiments with GraphPad Prism Software. A compound that achieved over 80% of the maximal effect of butaprost was considered as full agonist.
For the following compounds the potency was determined in the cAMP release assay applying human EP2 transfectant CHOp6CreLuc-huEP2 cells. […] The numbers of the compounds correspond to the examples numbers.
EP2 cAMP Release Assay: pEC50

[2] = test system: plasma TNFα after i.v. LPS; experiment: In vivo assay: LPS-induced TNFα release in rats; set-up: species or system Sprague Dawley rats; details: Rattus norvegicus; p.o. 1 h prior to i.v. LPS 20 μg/kg; plasma TNFα 1 h after LPS
Description: In Vivo Assay: LPS-Induced TNFα Release in Rats
Intravenously administration of lipopolysaccharide (LPS) causes a systemic inflammation characterised by release of pro-inflammatory cytokines, e.g. tumor necrosis factor alpha (TNFα). Selective EP2 agonists are administered per oral 1 h prior intravenously LPS challenge in rats. The anti-inflammatory activity of the selective EP2 agonists is assessed based on TNFα levels in blood plasma 1 h after LPS exposure.
Male Sprague Dawley rats weighing 250-300 g were used. Rats were delivered 1 week prior to the experiments and had free access to water and food.
The test compound was mixed with 1.33% polyethylenglycol 400 (PEG400, Merck, Darmstadt, Germany) and subsequently suspended in 2% methocel solution (hypromellose, Sigma, Steinheim, Germany) containing Antifoam C Emulsion (Sigma, Steinheim, Germany, 0.1 mL/15 mL) using a mixing device (ULTRA-TURRAX T8 basic, VDI12, VWR International GmbH). The aimed doses were prepared by dilution series from the stock suspension, which was prepared for the administration of the highest dose in each experiment.
The administered volume of the compound suspension is 10 mL/kg. On day of the experiment the rat body weights were documented to calculate the volume to be administered. LPS challenged control animals received drug-free vehicle solution as placebo. Test compounds and vehicle were administered by oral gavage 1 h prior to LPS challenge.
LPS (from Escherichia coli 055:B5, Sigma, Steinheim, Germany) was solubilised in 0.9% sterile NaCl solution (B. Braun Melsungen AG, Melsungen, Germany) containing 0.1% hydroxylamine (Sigma, Steinheim, Germany). LPS is intravenously (i.v.) injected at a dose of 20 μg/kg (1 mL/kg b.w.) 1 h after compound or vehicle administration.
One hour after LPS-challenge, the animals were sacrificed by inhalative isofluran anaesthesia and subsequently cervical dislocation. Heparinised blood was obtained by heart puncture. Blood was centrifuged (21,000×g, 4° C., 10 min), and plasma samples were kept frozen at −20° C. until determination of TNFα levels by ELISA. TNFα was measured with a commercially available ELISA-Kit (Quantikine®, Rat TNFα/TNFSF1A, R&D Systems, Minneapolis, USA).
The compound effect on TNFα release was calculated individually in percent (%) for each compound treated animal in relation to the mean TNFα level of the vehicle treated LPS-challenged control group: % effect=(Y−K)/K*100 • with defining: • Y=plasma TNFα concentration of the compound treated animal • K=mean plasma TNFα concentration of the vehicle treated group
Statistical analysis was performed on the primary TNFα concentrations by One-Way ANOVA and Dunnett's Multiple Comparison test vs. vehicle treated control group.

[3] = test system: TNFalpha release in human whole blood stimulated with LPS; experiment: Inhibition of LPS induced TNFalpha release in human whole blood; assay type: cell-based; details: 1 microg/mL LPS, 4 hours, reported as range bins, read-out: Inhibition of LPS induced TNFalpha release in human whole blood pIC30 (-log IC30)
Description: Method for Measuring the Inhibition of TNFalpha Release in Human Whole Blood Stimulated with LPS:
Assay was performed with some modifications of the method described by Hatzelmann and Schudt (Hatzelmann and Schudt (2001) JPET 297: 267-279) and the protocol “drawing of venous blood from healthy volunteers for in vitro studies” was approved by the ethics committee of the Landesärztekammer Baden Württemberg in Stuttgart.
Heparinised venous blood was equilibrated to assay conditions for 1 hour at room temperature upon blood drawing. Immediately thereafter, 200 microL whole blood per sample were pre-incubated with 25 microL of a serial dilution of test compound or piclamilast as positive control for 30 min. at 37° C. After pre-incubation blood samples were stimulated by the addition of 25 microL lipopolysaccharide (LPS) (Sigma, Aldrich) per sample resulting in a final concentration of 1 microg/mL LPS and a final volume of 250 microL. Cells were incubated for 4 hours at 37° C. TNFalpha levels were determined from plasma that was obtained by a centrifugation step and transferring the supernatant to a new 96-well plate which was again centrifuged and clear plasma supernatant was used for the measurement of TNFalpha via alphaLISA Technology according to manufacture protocol (Perkin Elmer).
Whole blood samples that were not stimulated with LPS were used as control and set for 100% inhibition. Whole blood samples that were stimulated with LPS and solvent instead of test compound were set as 0% inhibition. Percent inhibition was calculated based on these controls for each sample and since most compounds achieved saturating maximal inhibition of 60% a pIC30 value was calculated with GraphPad Prism Software.
For the following compounds the inhibitory values of TNFalpha release [determined as −log IC30=pIC30] in the human whole blood assay between 4.5 and 4.9, between 5.0 and 5.9 and between 6.0 and 6.9 have been determined. The numbers of the compounds correspond to the examples numbers.
Inhibition of LPS Induced TNFalpha Release Assay in Human Whole Blood: pIC30

SMILES | EC50 [1] [nM] | ED50 [2] [mg/kg] | IC30 [3] [nM]
O=C(O)/C=C/c1cccc(NC(=O)c2cc(-c3ccccc3)cc3ccccc23)c1 [Example 1, (2E)-3-(3-{[(3-phenylnaphthalen-1-yl)carbonyl]amino}phenyl)prop-2-enoic acid] | 0.00631 to 0.1 | 0.1 to 3 | 126 to 1000
O=C(O)/C=C/c1ccc(F)c(NC(=O)c2cc(-c3ccccc3)cc3ccccc23)c1 [Example 2, (2E)-3-(4-fluoro-3-{[(3-phenylnaphthalen-1-yl)carbonyl]amino}phenyl)prop-2-enoic acid] | 0.00631 to 0.1 | 0.1 to 3 | 126 to 1000
O=C(O)/C=C/c1ccc(Cl)c(NC(=O)c2cc(-c3ccccc3)cc3ccccc23)c1 [Example 3, (2E)-3-(4-chloro-3-{[(3-phenylnaphthalen-1-yl)carbonyl]amino}phenyl)prop-2-enoic acid] | 0.00631 to 0.1 | 0.1 to 3 | 12600 to 31600
O=C(O)/C=C/c1ccc(F)c(NC(=O)c2cc(-c3ccccc3F)cc3ccccc23)c1 [Example 9, (2E)-3-{3-[({3-[2-fluorophenyl]naphthalen-1-yl}carbonyl)amino]-4fluorophenyl}prop-2-enoic acid] | 0.00631 to 0.1 | 0.1 to 3 | 126 to 1000
O=C(O)/C=C/c1ccc(F)c(NC(=O)c2cc(-c3cccc(F)c3)cc3ccccc23)c1 [Example 10, (2E)-3-{3-[({3-[3-fluorophenyl]naphthalen-1-yl}carbonyl)amino]-4fluorophenyl}prop-2-enoic acid] | 0.00631 to 0.1 | 0.1 to 3 | 126 to 1000
